Results from PubChem BioAssay (NCI).
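Cells were grown in 96-well plates and exposed to each compound for 48 hours at five concentrations; endpoints were interpolated linearly between bracketing concentrations, or set to the highest concentration if not reached. Abbreviation: GI50, concentration required for 50% inhibition of growth. At the TGI there is no net growth.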

How the values were obtained:
Test in all cases: inhibition of tumour cell growth, NCI panel, 48 h
[1] = system: 786-0 renal
[2] = system: A498 renal
[3] = system: A549 NSCLC
[4] = system: ACHN renal
[5] = system: BT-549 breast
[6] = system: CAKI-1 renal
[7] = system: CCRF-CEM leukemia
[8] = system: COLO 205 colon
[9] = system: DU-145 prostate
[10] = system: EKVX NSCLC
[11] = system: HCC-2998 colon
[12] = system: HCT-116 colon
[13] = system: HCT-15 colon
[14] = system: HL-60(TB) leukemia
[15] = system: HOP-62 NSCLC
[16] = system: HOP-92 NSCLC
[17] = system: HS 578T breast
[18] = system: HT29 colon
[19] = system: IGROV1 ovarian
[20] = system: K-562 leukemia
[21] = system: KM12 colon
[22] = system: LOX IMVI melanoma
[23] = system: M14 melanoma
[24] = system: MALME-3M melanoma
[25] = system: MCF7 breast
[26] = system: MDA-MB-231 breast
[27] = system: MDA-MB-435
[28] = system: MDA-MB-468 breast
[29] = system: MOLT-4 leukemia
[30] = system: NCI-H226 lung
[31] = system: NCI-H23 lung
[32] = system: NCI-H460 lung
[33] = system: NCI-H522 lung
[34] = system: NCI/ADR-RES ovarian
[35] = system: OVCAR-3 ovarian
[36] = system: OVCAR-4 ovarian
[37] = system: OVCAR-5 ovarian
[38] = system: OVCAR-8 ovarian
[39] = system: PC-3 prostate
[40] = system: RPMI-8226 leukemia
[41] = system: RXF 393 renal
[42] = system: SF-268 CNS
[43] = system: SF-295 CNS
[44] = system: SF-539 CNS
[45] = system: SK-MEL-2 melanoma
[46] = system: SK-MEL-28 melanoma
[47] = system: SK-MEL-5 melanoma
[48] = system: SK-OV-3 ovarian
[49] = system: SN12C renal
[50] = system: SNB-19 CNS
[51] = system: SNB-75 CNS
[52] = system: SR leukemia
[53] = system: SW-620 colon
[54] = system: T-47D breast
[55] = system: TK-10 renal
[56] = system: U251 CNS
[57] = system: UACC-257 melanoma
[58] = system: UACC-62 melanoma
[59] = system: UO-31 renal

Brc1ccc(N/N=C/c2c[nH]c3ccccc23)nc1
GI50 [1]: 13.2 µM | TGI [1]: > 100 µM | GI50 [2]: 35.2 µM | TGI [2]: > 100 µM | GI50 [3]: 12.6 µM | TGI [3]: > 100 µM | GI50 [4]: 11.6 µM | TGI [4]: > 100 µM | GI50 [5]: 0.17 µM | TGI [5]: > 100 µM | GI50 [6]: 4.35 µM | TGI [6]: > 100 µM | GI50 [7]: 0.839 µM | TGI [7]: > 100 µM | GI50 [8]: > 100 µM | TGI [8]: > 100 µM | GI50 [9]: 20.5 µM | TGI [9]: > 100 µM | GI50 [10]: 4.44 µM | TGI [10]: > 100 µM | GI50 [11]: 9.35 µM | TGI [11]: > 100 µM | GI50 [12]: 13.2 µM | TGI [12]: > 100 µM | GI50 [13]: 9.19 µM | TGI [13]: > 100 µM | GI50 [14]: 2.81 µM | TGI [14]: > 100 µM | GI50 [15]: 11 µM | TGI [15]: 59.3 µM | GI50 [16]: 6.66 µM | TGI [16]: 57.6 µM | GI50 [17]: 7.45 µM | TGI [17]: > 100 µM | GI50 [18]: 29.4 µM | TGI [18]: > 100 µM | GI50 [19]: 1.63 µM | TGI [19]: > 100 µM | GI50 [20]: 4.05 µM | TGI [20]: > 100 µM | GI50 [21]: 3.68 µM | TGI [21]: > 100 µM | GI50 [22]: 6.47 µM | TGI [22]: > 100 µM | GI50 [23]: 78.5 µM | TGI [23]: > 100 µM | GI50 [24]: > 100 µM | TGI [24]: > 100 µM | GI50 [25]: 2.43 µM | TGI [25]: > 100 µM | GI50 [26]: 2.2 µM | TGI [26]: 8.47 µM | GI50 [27]: 79.4 µM | TGI [27]: > 100 µM | GI50 [28]: 1.88 µM | TGI [28]: 6.1 µM | GI50 [29]: 2.67 µM | TGI [29]: > 100 µM | GI50 [30]: 3.78 µM | TGI [30]: > 100 µM | GI50 [31]: > 100 µM | TGI [31]: > 100 µM | GI50 [32]: 14.1 µM | TGI [32]: > 100 µM | GI50 [33]: 2.53 µM | TGI [33]: 28 µM | GI50 [34]: 7.03 µM | TGI [34]: > 100 µM | GI50 [35]: 8.63 µM | TGI [35]: > 100 µM | GI50 [36]: 77.9 µM | TGI [36]: > 100 µM | GI50 [37]: > 100 µM | TGI [37]: > 100 µM | GI50 [38]: 26.3 µM | TGI [38]: > 100 µM | GI50 [39]: 4.83 µM | TGI [39]: > 100 µM | GI50 [40]: 3.07 µM | TGI [40]: > 100 µM | GI50 [41]: 2.5 µM | TGI [41]: 80.9 µM | GI50 [42]: 4.15 µM | TGI [42]: > 100 µM | GI50 [43]: 19.1 µM | TGI [43]: > 100 µM | GI50 [44]: 4.7 µM | TGI [44]: > 100 µM | GI50 [45]: > 100 µM | TGI [45]: > 100 µM | GI50 [46]: > 100 µM | TGI [46]: > 100 µM | GI50 [47]: 25.6 µM | TGI [47]: > 100 µM | GI50 [48]: 56.2 µM | TGI [48]: > 100 µM | GI50 [49]: 2.28 µM | TGI [49]: > 100 µM | GI50 [50]: 11.4 µM | TGI [50]: 46.4 µM | GI50 [51]: 0.385 µM | TGI [51]: 97.9 µM | GI50 [52]: 2.28 µM | TGI [52]: > 100 µM | GI50 [53]: 76 µM | TGI [53]: > 100 µM | GI50 [54]: 3.97 µM | TGI [54]: > 100 µM | GI50 [55]: 48 µM | TGI [55]: > 100 µM | GI50 [56]: 21 µM | TGI [56]: > 100 µM | GI50 [57]: > 100 µM | TGI [57]: > 100 µM | GI50 [58]: 37.3 µM | TGI [58]: > 100 µM | GI50 [59]: 1.46 µM | TGI [59]: > 100 µM

O=C(NO)c1ccc(CN2CCN(c3nc(-c4ccccc4)c4ccccc4n3)CC2)cc1
GI50 [1]: 5.81 µM | TGI [1]: 19.1 µM | GI50 [2]: 8.03 µM | TGI [2]: > 23.7 µM | GI50 [3]: 4.57 µM | TGI [3]: 11.5 µM | GI50 [4]: 4.06 µM | TGI [4]: 10.2 µM | GI50 [5]: 8.64 µM | TGI [5]: > 23.7 µM | GI50 [6]: 5.15 µM | TGI [6]: 20.2 µM | GI50 [7]: 2.89 µM | TGI [7]: > 23.7 µM | GI50 [8]: 5.13 µM | TGI [8]: 12.3 µM | GI50 [9]: 5.63 µM | TGI [9]: 17 µM | GI50 [10]: 4.94 µM | TGI [10]: 11.8 µM | GI50 [11]: 4.03 µM | TGI [11]: 9.97 µM | GI50 [12]: 2.95 µM | TGI [12]: 20.2 µM | GI50 [13]: 1.08 µM | TGI [13]: 7.77 µM | GI50 [14]: 6.99 µM | TGI [14]: > 23.7 µM | GI50 [15]: 8.88 µM | TGI [15]: > 23.7 µM | GI50 [16]: 5.02 µM | TGI [16]: 21.6 µM | GI50 [17]: 7.85 µM | TGI [17]: > 23.7 µM | GI50 [18]: 5.75 µM | TGI [18]: > 23.7 µM | GI50 [19]: 4.55 µM | TGI [19]: 11 µM | GI50 [20]: 5.8 µM | TGI [20]: > 23.7 µM | GI50 [21]: 7.77 µM | TGI [21]: > 23.7 µM | GI50 [22]: 2.97 µM | TGI [22]: 6.12 µM | GI50 [23]: 6.26 µM | TGI [23]: > 23.7 µM | GI50 [24]: 5.2 µM | TGI [24]: 18.3 µM | GI50 [25]: 4.4 µM | TGI [25]: 23.4 µM | GI50 [26]: 3.4 µM | TGI [26]: 11 µM | GI50 [27]: 6.64 µM | TGI [27]: > 23.7 µM | GI50 [28]: 2.74 µM | TGI [28]: 7.23 µM | GI50 [29]: 5.59 µM | TGI [29]: > 23.7 µM | GI50 [30]: 4.09 µM | TGI [30]: 13.3 µM | GI50 [31]: 3.67 µM | TGI [31]: 7.89 µM | GI50 [32]: 3.66 µM | TGI [32]: 8.5 µM | GI50 [33]: 4.57 µM | TGI [33]: 14.1 µM | GI50 [34]: 3.24 µM | TGI [34]: 7.86 µM | GI50 [35]: 4.32 µM | TGI [35]: 15.1 µM | GI50 [36]: 4.3 µM | TGI [36]: > 23.7 µM | GI50 [37]: 4.61 µM | TGI [37]: 12.4 µM | GI50 [38]: 4.78 µM | TGI [38]: 12.9 µM | GI50 [39]: 4.18 µM | TGI [39]: > 23.7 µM | GI50 [40]: 5.6 µM | TGI [40]: > 23.7 µM | GI50 [41]: 2.9 µM | TGI [41]: 8.53 µM | GI50 [42]: 6.59 µM | TGI [42]: 20.7 µM | GI50 [43]: 4.5 µM | TGI [43]: 11 µM | GI50 [44]: 3.97 µM | TGI [44]: 7.92 µM | GI50 [45]: 7.78 µM | TGI [45]: > 23.7 µM | GI50 [46]: 6.83 µM | TGI [46]: > 23.7 µM | GI50 [47]: 3.67 µM | TGI [47]: 6.91 µM | GI50 [48]: 5.61 µM | TGI [48]: 13.5 µM | GI50 [49]: 5.65 µM | TGI [49]: 19.4 µM | GI50 [50]: 6.27 µM | TGI [50]: > 23.7 µM | GI50 [51]: 3.76 µM | TGI [51]: > 23.7 µM | GI50 [52]: > 23.7 µM | TGI [52]: > 23.7 µM | GI50 [53]: 4.8 µM | TGI [53]: 15.1 µM | GI50 [54]: 6.05 µM | TGI [54]: 23.2 µM | GI50 [55]: 7.04 µM | TGI [55]: > 23.7 µM | GI50 [56]: 6.19 µM | TGI [56]: > 23.7 µM | GI50 [57]: 6.94 µM | TGI [57]: > 23.7 µM | GI50 [58]: 3.74 µM | TGI [58]: 8.28 µM | GI50 [59]: 3 µM | TGI [59]: 7.24 µM
